{
  "source": "ChEMBL document CHEMBL3774317",
  "about": "“Design and synthesis of novel tamoxifen analogues that avoid CYP2D6 metabolism” (Eur J Med Chem, 2016)",
  "format_in_all_cases": "functional",
  "key": {"SK-MEL-5 [1]": {"tested_on": "SK-MEL-5", "test": "Cytotoxicity against human SK-MEL-5 cells assessed as cell growth at 10^-7 M after 48 hrs by SRB assay", "details": "SK-MEL-5, 48 h, read-out: Activity"}, "[2]": {"test": "Cytotoxicity against human UACC257 cells assessed as cell growth at 10^-7 M after 48 hrs by SRB assay", "details": "UACC-257, 48 h, read-out: Activity"}, "[3]": {"test": "Cytotoxicity against human TK10 cells assessed as cell growth at 10^-7 M after 48 hrs by SRB assay", "details": "TK-10, 48 h, read-out: Activity"}, "[4]": {"test": "Cytotoxicity against human DU145 cells assessed as cell growth at 10^-7 M after 48 hrs by SRB assay", "details": "DU-145, 48 h, read-out: Activity"}, "[5]": {"test": "Cytotoxicity against human Hs 578T cells assessed as cell growth at 10^-7 M after 48 hrs by SRB assay", "details": "read-out: Activity"}, "ACHN": {"tested_on": "ACHN", "test": "Cytotoxicity against human ACHN cells assessed as cell growth at 10^-4 M after 48 hrs by SRB assay", "details": "read-out: Activity"}, "A549": {"tested_on": "A549", "test": "Cytotoxicity against human A549 cells assessed as cell growth at 10^-8 M after 48 hrs by SRB assay", "details": "A549, 48 h, read-out: Activity"}, "[6]": {"test": "Cytotoxicity against human LOXIMVI cells assessed as cell growth at 10^-6 M after 48 hrs by SRB assay", "details": "LOX IMVI, read-out: Activity"}, "SK-MEL-28": {"tested_on": "SK-MEL-28", "test": "Cytotoxicity against human SK-MEL-28 cells assessed as cell growth at 10^-6 M after 48 hrs by SRB assay", "details": "SK-MEL-28, 48 h, read-out: Activity"}, "[7]": {"test": "Cytotoxicity against human OVCAR4 cells assessed as cell growth at 10^-6 M after 48 hrs by SRB assay", "details": "OVCAR-4, 48 h, read-out: Activity"}, "SK-MEL-2": {"tested_on": "SK-MEL-2", "test": "Cytotoxicity against human SK-MEL-2 cells assessed as cell growth at 10^-8 M after 48 hrs by SRB assay", "details": "SK-MEL-2, 48 h, read-out: Activity"}, "K562": {"tested_on": "K562", "test": "Cytotoxicity against human K562 cells assessed as cell growth at 10^-7 M after 48 hrs by SRB assay", "details": "K562, 48 h, read-out: Activity"}, "SN12C": {"tested_on": "SN12C", "test": "Cytotoxicity against human SN12C cells assessed as cell growth at 10^-5 M after 48 hrs by SRB assay", "details": "read-out: Activity"}, "[8]": {"test": "Cytotoxicity against human HOP62 cells assessed as cell growth at 10^-4 M after 48 hrs by SRB assay", "details": "HOP-62, 48 h, read-out: Activity"}, "[9]": {"test": "Cytotoxicity against human SW620 cells assessed as cell growth at 10^-4 M after 48 hrs by SRB assay", "details": "SW-620, 48 h, read-out: Activity"}, "[10]": {"test": "Cytotoxicity against human OVCAR4 cells assessed as cell growth at 10^-4 M after 48 hrs by SRB assay", "details": "OVCAR-4, 48 h, read-out: Activity"}, "CCRF-CEM": {"tested_on": "CCRF-CEM", "test": "Cytotoxicity against human CCRF-CEM cells assessed as cell growth at 50 nM after 48 hrs by SRB assay", "details": "read-out: Activity"}, "NCI-H322M": {"tested_on": "NCI-H322M", "test": "Cytotoxicity against human NCI-H322M cells assessed as cell growth at 50 nM after 48 hrs by SRB assay", "details": "read-out: Activity"}, "[11]": {"test": "Cytotoxicity against human OVCAR4 cells assessed as cell growth at 0.5 uM after 48 hrs by SRB assay", "details": "OVCAR-4, 48 h, read-out: Activity"}, "[12]": {"test": "Cytotoxicity against human HL-60(TB) cells assessed as cell growth at 5 uM after 48 hrs by SRB assay", "details": "HL-60, 48 h, read-out: Activity"}, "NCI-H226": {"tested_on": "NCI-H226", "test": "Cytotoxicity against human NCI-H226 cells assessed as cell growth at 5 uM after 48 hrs by SRB assay", "details": "NCI-H226, 48 h, read-out: Activity"}, "[13]": {"test": "Cytotoxicity against human HCT15 cells assessed as cell growth at 5 nM after 48 hrs by SRB assay", "details": "HCT-15, 48 h, read-out: Activity"}, "SK-MEL-5 [14]": {"tested_on": "SK-MEL-5", "test": "Cytotoxicity against human SK-MEL-5 cells assessed as cell growth at 5 uM after 48 hrs by SRB assay", "details": "SK-MEL-5, 48 h, read-out: Activity"}, "[15]": {"test": "Cytotoxicity against human Caki1 cells assessed as cell growth at 5 uM after 48 hrs by SRB assay", "details": "CAKI-1, 48 h, read-out: Activity"}, "[16]": {"test": "Cytotoxicity against human Hs 578T cells assessed as cell growth at 5 uM after 48 hrs by SRB assay", "details": "read-out: Activity"}},
  "data": [
    {"smiles": "C/C(=C(/c1ccc(O)cc1)c1ccc(OCCN2CCCC2)cc1)c1ccccc1", "values": [
      {"measurement": "growth at 0.1 µM", "setting": "SK-MEL-5 [1]", "result": 102, "unit": "%"},
      {"measurement": "growth at 0.1 µM", "setting": "[2]", "result": 102, "unit": "%"},
      {"measurement": "growth at 0.1 µM", "setting": "[3]", "result": 94, "unit": "%"},
      {"measurement": "growth at 0.1 µM", "setting": "[4]", "result": 96, "unit": "%"},
      {"measurement": "growth at 0.1 µM", "setting": "[5]", "result": 101, "unit": "%"},
      {"measurement": "growth at 100 µM", "setting": "ACHN", "result": -91, "unit": "%"},
      {"measurement": "growth at 0.01 µM", "setting": "A549", "result": 99, "unit": "%"},
      {"measurement": "growth at 1 µM", "setting": "[6]", "result": 92, "unit": "%"},
      {"measurement": "growth at 1 µM", "setting": "SK-MEL-28", "result": 85, "unit": "%"},
      {"measurement": "growth at 1 µM", "setting": "[7]", "result": 89, "unit": "%"},
      {"measurement": "growth at 0.01 µM", "setting": "SK-MEL-2", "result": 97, "unit": "%"},
      {"measurement": "growth at 0.1 µM", "setting": "K562", "result": 96, "unit": "%"},
      {"measurement": "growth at 10 µM", "setting": "SN12C", "result": 48, "unit": "%"},
      {"measurement": "growth at 100 µM", "setting": "[8]", "result": -86, "unit": "%"},
      {"measurement": "growth at 100 µM", "setting": "[9]", "result": -92, "unit": "%"},
      {"measurement": "growth at 100 µM", "setting": "[10]", "result": -96, "unit": "%"}
    ]},
    {"smiles": "CCCCCCCCCC(=O)Oc1ccc(/C(=C(/C)c2ccccc2)c2ccc(OCCN3CCCC3)cc2)cc1", "values": [
      {"measurement": "growth at 0.05 µM", "setting": "CCRF-CEM", "result": 100, "unit": "%"},
      {"measurement": "growth at 0.05 µM", "setting": "NCI-H322M", "result": 93, "unit": "%"},
      {"measurement": "growth at 0.5 µM", "setting": "[11]", "result": 68, "unit": "%"},
      {"measurement": "growth at 5 µM", "setting": "[12]", "result": 94, "unit": "%"},
      {"measurement": "growth at 5 µM", "setting": "NCI-H226", "result": 97, "unit": "%"},
      {"measurement": "growth at 0.005 µM", "setting": "[13]", "result": 98, "unit": "%"},
      {"measurement": "growth at 5 µM", "setting": "SK-MEL-5 [14]", "result": 90, "unit": "%"},
      {"measurement": "growth at 5 µM", "setting": "[15]", "result": 71, "unit": "%"},
      {"measurement": "growth at 5 µM", "setting": "[16]", "result": 77, "unit": "%"}
    ]}
  ]
}
